Measured values reported in the supplement of paper PMC13380429.

Assays:
Conditions in all cases: 72 h
U2OS [1] = test: cell viability relative to DMSO; higher = less toxic
Caco-2 [2] = test: as above
Calu-3 [3] = test: as above
HepG2 [4] = test: as above
Vero E6 [5] = test: as above
U2OS [6] = test: relative viability EC50 (midpoint between 100% and the lowest measured viability); higher = less toxic
Caco-2 [7] = test: as above
Calu-3 [8] = test: as above
HepG2 [9] = test: as above
Vero E6 [10] = test: as above
U2OS [11] = test: drug sensitivity score (DSS) for viability; higher = more toxic; extreme values may be limits of the assay
Caco-2 [12] = test: as above
Calu-3 [13] = test: as above
HepG2 [14] = test: as above
Vero E6 [15] = test: as above

SMILES | cell viability (U2OS [1]; 1 nM) | cell viability (U2OS [1]; 10 nM) | cell viability (U2OS [1]; 100 nM) | cell viability (U2OS [1]; 1000 nM) | cell viability (U2OS [1]; 10000 nM) | cell viability (Caco-2 [2]; 1 nM) | cell viability (Caco-2 [2]; 10 nM) | cell viability (Caco-2 [2]; 100 nM) | cell viability (Caco-2 [2]; 1000 nM) | cell viability (Caco-2 [2]; 10000 nM) | cell viability (Calu-3 [3]; 1 nM) | cell viability (Calu-3 [3]; 10 nM) | cell viability (Calu-3 [3]; 100 nM) | cell viability (Calu-3 [3]; 1000 nM) | cell viability (Calu-3 [3]; 10000 nM) | cell viability (HepG2 [4]; 1 nM) | cell viability (HepG2 [4]; 10 nM) | cell viability (HepG2 [4]; 100 nM) | cell viability (HepG2 [4]; 1000 nM) | cell viability (HepG2 [4]; 10000 nM) | cell viability (Vero E6 [5]; 1 nM) | cell viability (Vero E6 [5]; 10 nM) | cell viability (Vero E6 [5]; 100 nM) | cell viability (Vero E6 [5]; 1000 nM) | cell viability (Vero E6 [5]; 10000 nM) | relative viability EC50 (U2OS [6]) | relative viability EC50 (Caco-2 [7]) | relative viability EC50 (Calu-3 [8]) | relative viability EC50 (HepG2 [9]) | relative viability EC50 (Vero E6 [10]) | drug sensitivity score (U2OS [11]) | drug sensitivity score (Caco-2 [12]) | drug sensitivity score (Calu-3 [13]) | drug sensitivity score (HepG2 [14]) | drug sensitivity score (Vero E6 [15])
OCC(Br)(Br)Br [tribromoethanol] | 95.3% | 98.3% | 96.7% | 98.8% | 101% | 81.4% | 116% | 92.7% | 98.8% | 107% | 91.4% | 95.9% | 98.3% | 106% | 94.2% | 99.3% | 102% | 102% | 97% | 85.4% | 106% | 96.3% | 108% | 87.7% | 99.9% | > 10 µM | > 10 µM | > 10 µM | > 10 µM | > 10 µM | 0 | 0 | 0 | 0.5 | 0
CC[N+](CC)(CC)CCC(O)(c1ccccc1)C1CCCCC1 (stereo not given) [tridihexethyl] | 101% | 94.5% | 97.1% | 106% | 103% | 100% | 92.8% | 102% | 92.7% | 110% | 104% | 104% | 96.9% | 103% | 106% | 99.8% | 108% | 92.5% | 89% | 112% | 96.4% | 93.6% | 97.2% | 97.6% | 103% | > 10 µM | > 10 µM | > 10 µM | > 10 µM | > 10 µM | 0 | 0 | 0 | 0 | 0
c1cnc2cc3c(cc2n1)[C@@H]1CNC[C@H]3C1 [varenicline] | 97.5% | 93.5% | 103% | 96.3% | 104% | 95.4% | 91.9% | 103% | 93.1% | 93.7% | 105% | 99.1% | 108% | 98.1% | 105% | 97.2% | 88.7% | 90.4% | 95.4% | 101% | 91% | 99.8% | 91.4% | 98.7% | 104% | > 10 µM | > 10 µM | > 10 µM | > 10 µM | > 10 µM | 0 | 0 | 0 | 0 | 0
